biological target: T1, BaF3 BRAF-KIAA1549 fusion cells (Homo sapiens, UniProt P15056); experiment: BaF3 BRAF-KIAA1549 fusion cell proliferation assay (CellTiterGlo, 96 hours); format: cell-based; conditions: Table A2
T1 construct: The BRAF-KIAA1549 fusion mutant was subcloned into pMXs-IRES-Blasticidin (RTV-016, Cell Biolabs, San Diego, CA); No tag given; Q9HCM3 (UPF0606 protein KIAA1549)
How it was run: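 BaF3 cells retrovirally transduced with BRAF-KIAA1549 fusion and blasticidin-selected were plated at 7×10^4 c/well in RPMI, 10% heat-inactivated FBS, 1% L-glutamine, and exposed to compound for 96 hours. Growth was read as ATP content by CellTiterGlo luminescence. IC50 was fitted by Levenberg-Marquardt, normalised to DMSO-treated cells.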

T1 sequence (P15056 whole entry, change not shown, the tested form may be a part): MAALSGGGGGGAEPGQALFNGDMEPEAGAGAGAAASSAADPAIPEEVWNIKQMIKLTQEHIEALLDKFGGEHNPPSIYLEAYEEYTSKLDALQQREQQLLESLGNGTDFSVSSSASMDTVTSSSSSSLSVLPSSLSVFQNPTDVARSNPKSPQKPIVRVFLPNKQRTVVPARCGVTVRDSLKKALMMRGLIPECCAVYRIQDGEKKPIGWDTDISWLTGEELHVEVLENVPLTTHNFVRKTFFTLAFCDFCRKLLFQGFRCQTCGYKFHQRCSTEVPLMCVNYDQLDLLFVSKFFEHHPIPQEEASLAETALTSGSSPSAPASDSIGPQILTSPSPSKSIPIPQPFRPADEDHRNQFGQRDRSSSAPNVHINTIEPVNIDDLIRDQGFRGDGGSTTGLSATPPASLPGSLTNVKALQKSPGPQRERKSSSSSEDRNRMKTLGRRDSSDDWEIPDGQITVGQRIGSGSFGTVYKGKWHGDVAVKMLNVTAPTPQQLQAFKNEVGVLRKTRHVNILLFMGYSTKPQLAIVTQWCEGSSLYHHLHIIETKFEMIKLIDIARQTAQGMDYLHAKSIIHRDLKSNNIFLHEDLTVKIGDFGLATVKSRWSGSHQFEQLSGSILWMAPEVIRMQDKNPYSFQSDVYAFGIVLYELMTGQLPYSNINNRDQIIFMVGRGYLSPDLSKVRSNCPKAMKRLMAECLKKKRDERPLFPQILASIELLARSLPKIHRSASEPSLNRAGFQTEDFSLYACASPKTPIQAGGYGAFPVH

SMILES	GI50 [nM]
CNc1cc2ncc(-c3cc(NC(=O)c4cccc(C(C)(C)C#N)c4)c(F)cc3C)cc2cn1 [Compound 223, 3-(2-cyanopropan-2-yl)-N-(2-fluoro-4-methyl-5-(7-(methylamino)-1,6-naphthyridin-3-yl)phenyl)benzamide]	20 to 100
CNc1cc2ncc(-c3cc(NC(=O)c4cc(C(F)(F)F)ccn4)c(F)cc3C)cc2cn1 [Compound 224, N-(2-fluoro-4-methyl-5-(7-(methylamino)-1,6-naphthyridin-3-yl)phenyl)-4-(trifluoromethyl)picolinamide]	100 to 500
CNc1cc2ncc(-c3cc(NC(=O)c4cnc5n4CC(C)CC5)cnc3C)cc2cn1 (stereo not drawn) [Compound 225, 6-methyl-N-(6-methyl-5-(7-(methylamino)-1,6-naphthyridin-3-yl)pyridin-3-yl)-5,6,7,8-tetrahydroimidazo[1,2-a]pyridine-3-carboxamide]	20 to 100
CNc1cc2ncc(-c3cc(NC(=O)c4ccccc4NC(C)C(F)F)cnc3C)cc2cn1 (stereo not drawn) [Compound 226, 2-((1,1-difluoropropan-2-yl)amino)-N-(6-methyl-5-(7-(methylamino)-1,6-naphthyridin-3-yl)pyridin-3-yl)benzamide]	20 to 100
CCC(C)c1ccnc(C(=O)Nc2cnc(C)c(-c3cnc4cc(NC)ncc4c3)c2)c1 (stereo not drawn) [Compound 227, 4-(sec-butyl)-N-(6-methyl-5-(7-(methylamino)-1,6-naphthyridin-3-yl)pyridin-3-yl)picolinamide]	20 to 100
CNc1cc2ncc(-c3cc(NC(=O)c4noc5c4CCCC5)ccc3C)cc2cn1 [Compound 228, N-(4-methyl-3-(7-(methylamino)-1,6-naphthyridin-3-yl)phenyl)-4,5,6,7-tetrahydrobenzo[d]isoxazole-3-carboxamide]	100 to 500
CNc1cc2ncc(-c3cc(NC(=O)c4n[nH]c5c4CCCC5)cnc3C)cc2cn1 [Compound 229, N-(6-methyl-5-(7-(methylamino)-1,6-naphthyridin-3-yl)pyridin-3-yl)-4,5,6,7-tetrahydro-1H-indazole-3-carboxamide]	20 to 100
CNc1cc2ncc(-c3cc(NC(=O)c4cnc5n4CCCCC5)cnc3C)cc2cn1 [Compound 232, N-(6-methyl-5-(7-(methylamino)-1,6-naphthyridin-3-yl)pyridin-3-yl)-6,7,8,9-tetrahydro-5H-imidazo[1,2-a]azepine-3-carboxamide]	100 to 500
CNc1cc2ncc(-c3cc(NC(=O)c4nn(C)c5c4CCCC5)cnc3C)cc2cn1 [Compound 233, 1-methyl-N-(6-methyl-5-(7-(methylamino)-1,6-naphthyridin-3-yl)pyridin-3-yl)-4,5,6,7-tetrahydro-1H-indazole-3-carboxamide]	20 to 100
CNc1cc2ncc(-c3cc(NC(=O)c4csc5c4CCCC5)cnc3C)cc2cn1 [Compound 234, N-(6-methyl-5-(7-(methylamino)-1,6-naphthyridin-3-yl)pyridin-3-yl)-4,5,6,7-tetrahydrobenzo[b]thiophene-3-carboxamide]	20 to 100
CNc1cc2ncc(-c3cc(NC(=O)c4csc5c4CCC(C)C5)cnc3C)cc2cn1 (stereo not drawn) [Compound 235, 6-methyl-N-(6-methyl-5-(7-(methylamino)-1,6-naphthyridin-3-yl)pyridin-3-yl)-4,5,6,7-tetrahydrobenzo[b]thiophene-3-carboxamide]	20 to 100
CNc1cc2ncc(-c3cc(NC(=O)c4cnc5n4CC(C(F)F)CC5)ccc3C)cc2cn1 (stereo not drawn) [Compound 238, 6-(difluoromethyl)-N-(4-methyl-3-(7-(methylamino)-1,6-naphthyridin-3-yl)phenyl)-5,6,7,8-tetrahydroimidazo[1,2-a]pyridine-3-carboxamide]	20 to 100
CNc1cc2ncc(-c3cc(NC(=O)c4cccc5c4OC(C)C5)cnc3C)cc2cn1 (stereo not drawn) [Compound 239, 2-methyl-N-(6-methyl-5-(7-(methylamino)-1,6-naphthyridin-3-yl)pyridin-3-yl)-2,3-dihydrobenzofuran-7-carboxamide]	≥ 500
CNc1cc2ncc(-c3cc(NC(=O)c4cnn(CC(F)(F)F)c4C)cnc3C)cc2cn1 [Compound 240, 5-methyl-N-(6-methyl-5-(7-(methylamino)-1,6-naphthyridin-3-yl)pyridin-3-yl)-1-(2,2,2-trifluoroethyl)-1H-pyrazole-4-carboxamide]	≥ 500

The remaining lines, values ahead:

GI50 [nM]	SMILES
100 to 500	CNc1cc2ncc(-c3cc(NC(=O)c4noc5c4CC(C(C)(C)C)CC5)cnc3C)cc2cn1 (stereo not drawn) [Compound 241, 5-(tert-butyl)-N-(6-methyl-5-(7-(methylamino)-1,6-naphthyridin-3-yl)pyridin-3-yl)-4,5,6,7-tetrahydrobenzo[d]isoxazole-3-carboxamide]
20 to 100	CNc1cc2ncc(-c3cc(NC(=O)c4cc(C(O)CC(F)(F)F)ccn4)cnc3C)cc2cn1 (stereo not drawn) [Compound 242, N-(6-methyl-5-(7-(methylamino)-1,6-naphthyridin-3-yl)pyridin-3-yl)-4-(3,3,3-trifluoro-1-hydroxypropyl)picolinamide]
20 to 100	CNc1cc2ncc(-c3cc(NC(=O)c4cnc5n4CC(C(F)(F)F)CC5)cnc3C)cc2cn1 (stereo not drawn) [Compound 243]
≥ 500	CNc1cc2ncc(-c3cc(NC(=O)c4n[nH]c5c4CN(C)CC5)cnc3C)cc2cn1 [Compound 244, 5-methyl-N-(6-methyl-5-(7-(methylamino)-1,6-naphthyridin-3-yl)pyridin-3-yl)-4,5,6,7-tetrahydro-1H-pyrazolo[4,3-c]pyridine-3-carboxamide]
20 to 100	CNc1cc2ncc(-c3cc(NC(=O)c4noc5c4CCCCC5)cnc3C)cc2cn1 [Compound 245, N-(6-methyl-5-(7-(methylamino)-1,6-naphthyridin-3-yl)pyridin-3-yl)-5,6,7,8-tetrahydro-4H-cyclohepta[d]isoxazole-3-carboxamide]
≥ 500	CNc1cc2ncc(-c3cc(NC(=O)c4noc5c4COCC5)cnc3C)cc2cn1 [Compound 246, N-(6-methyl-5-(7-(methylamino)-1,6-naphthyridin-3-yl)pyridin-3-yl)-6,7-dihydro-4H-pyrano[3,4-d]isoxazole-3-carboxamide]
20 to 100	CNc1cc2ncc(-c3cc(NC(=O)c4noc5c4CC(F)(F)CC5)cnc3C)cc2cn1 [Compound 247, 5,5-difluoro-N-(6-methyl-5-(7-(methylamino)-1,6-naphthyridin-3-yl)pyridin-3-yl)-4,5,6,7-tetrahydrobenzo[d]isoxazole-3-carboxamide]
≥ 500	CNCC(F)(F)c1cccc(C(=O)Nc2cnc(C)c(-c3cnc4cc(NC)ncc4c3)c2)n1 [Compound 250, 6-(1,1-difluoro-2-(methylamino)ethyl)-N-(6-methyl-5-(7-(methylamino)-1,6-naphthyridin-3-yl)pyridin-3-yl)picolinamide]
100 to 500	CNc1cc2ncc(-c3cc(NC(=O)c4cnc5n4CC(C(F)F)CC5)cnc3C)cc2cn1 (stereo not drawn) [Compound 251, 6-(difluoromethyl)-N-(6-methyl-5-(7-(methylamino)-1,6-naphthyridin-3-yl)pyridin-3-yl)-5,6,7,8-tetrahydroimidazo[1,2-a]pyridine-3-carboxamide]
20 to 100	CNc1cc2ncc(-c3cc(NC(=O)c4n[nH]c5c4C[C@@H]4C[C@H]54)cnc3C)cc2cn1 [Compound 252, (4aS,5aS)—N-(6-methyl-5-(7-(methylamino)-1,6-naphthyridin-3-yl)pyridin-3-yl)-4,4a,5,5a-tetrahydro-1H-cyclopropa[4,5]cyclopenta[1,2-c]pyrazole-3-carboxamide]

Source: patent publication US20250017914A1, “6-AZA-QUINOLINE DERIVATIVES AND RELATED USES” (Black Diamond Therapeutics, Inc., priority 2021, published 2025)
